Assay [1] has as its target T1, Thermotoga maritima TrpB variant TmTrpB^T292S, SEQ ID NO: 26 (Thermotoga maritima, UniProt P50909, T292S).
T1 sequence (P50909 with tags, fused parts or gaps T292S): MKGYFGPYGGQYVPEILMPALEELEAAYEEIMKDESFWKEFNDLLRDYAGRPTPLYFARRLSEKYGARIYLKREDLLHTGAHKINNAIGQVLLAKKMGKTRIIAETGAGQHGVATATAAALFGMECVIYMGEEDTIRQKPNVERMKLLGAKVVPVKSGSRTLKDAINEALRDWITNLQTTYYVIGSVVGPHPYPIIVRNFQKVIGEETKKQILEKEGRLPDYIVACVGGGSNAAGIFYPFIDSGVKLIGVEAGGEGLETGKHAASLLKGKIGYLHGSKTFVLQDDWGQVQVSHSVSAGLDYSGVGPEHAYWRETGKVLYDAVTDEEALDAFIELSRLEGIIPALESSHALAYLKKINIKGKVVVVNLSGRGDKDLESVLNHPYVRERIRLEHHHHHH
Kind of assay: Tryptophan formation from L-serine and indole, kinetics of TmTrpB^T292S. The assay is classed as biochemical. As for the experimental part: Kinetics and UV-Vis Spectroscopy. Data were collected between 550 and 250 nm on a UV1800 Shimadzu spectrophotometer (Shimadzu) using 0.25-20 μM of enzyme in 200 mM potassium phosphate (pH 8.0) in a quartz cuvette. Samples were incubated at 75° C. for >3 min to ensure a stable temperature was reached. PfTrpB activity (kcat) was measured by monitoring tryptophan formation at 290 nm using Δe290=1.89 mM^−1·cm^−1.
Cloning, expression, and purification of the different orthologs. The genes encoding AfTrpB (UNIPROT ID O28672), TmTrpB (UNIPROT ID P50909) and EcTrpB (UNIPROT ID P0A879) were obtained from IDT and cloned into pET22(b)+ using Gibson Assembly. Protein expression was carried out in E. coli BL21 E. cloni Express cells (Lucigen) by inoculating 10-mL Terrific Broth (with 100 μg/mL ampicillin (TBamp)) with a single colony and incubated over night at 37° C. and 250 rpm. These overnight cultures were used to scale up to 500-mL TBamp expression cultures, which were grown by shaking at 250 rpm and 37° C. for ˜3 h or until an OD600 of 0.8 was reached. Then, after chilling the cultures on ice for 20 min, induction was conducted by the addition of IPTG to a final concentration of 1 mM. Induced cultures were allowed to grow at 250 rpm and 20° C. for another 20 h. After centrifugation, pelleted cells were frozen and stored at −20° C. until further use. For protein purification, thawed cells were resuspended in 50 mM potassium phosphate buffer (KPi, pH 8, 20 mM imidazole and 100 mM NaCl (buffer A)), with 200 μM PLP. Lysis was performed by adding BugBuster (Novagen) and incubating for 15 min at 37° C. Once cells were lysed, they were centrifuged to obtain the soluble protein-rich fraction. In the case of TmTrpB (but not for AfTrpB or EcTrpB), the lysate was then incubated at 75° C. for 20 min and was subjected to another centrifugation step. […]
The next homolog, TmTrpB, was examined. […] The variants without the T292S mutation lacked this probative absorbance peak, but the decrease at 428 nm and concomitant increase at 350 nm are consistent with a similar, though less pronounced activation.

For assay [2], the target named is T2, Archaeoglobus fulgidus TrpB variant AfTrpB^0B2 (P25L, E30G, I80V, F285S, T303S, T332A), SEQ ID NO: 22 (Archaeoglobus fulgidus, UniProt O28672, I80V/L285S/P25L/P30G/T303S/T332A).
T2 sequence (O28672 with tags, fused parts or gaps P25L/P30G/I80V/L285S/T303S/T332A): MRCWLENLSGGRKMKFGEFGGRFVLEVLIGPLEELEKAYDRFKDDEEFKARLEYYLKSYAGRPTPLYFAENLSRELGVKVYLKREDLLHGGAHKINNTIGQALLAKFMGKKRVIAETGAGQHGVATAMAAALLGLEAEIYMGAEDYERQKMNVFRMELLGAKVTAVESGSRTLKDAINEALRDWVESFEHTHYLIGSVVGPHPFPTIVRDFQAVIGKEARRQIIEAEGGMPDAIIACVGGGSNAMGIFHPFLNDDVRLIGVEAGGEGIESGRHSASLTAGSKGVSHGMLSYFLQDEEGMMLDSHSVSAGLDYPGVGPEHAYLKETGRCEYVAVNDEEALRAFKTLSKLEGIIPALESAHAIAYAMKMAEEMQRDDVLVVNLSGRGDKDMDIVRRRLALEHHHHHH
Kind of assay: Tryptophan formation from L-serine and indole, kinetics of AfTrpB^0B2.

This note sets out measurements from patent publication US12534748B2, “Engineered beta-subunit of tryptophan synthase for production of non-canonical amino acids” (California Institute of Technology, priority 2015, dated 2026).

A word on the kcat: it is the maximal rate divided by the concentration of active sites. For the molecule `c1ccc2[nH]ccc2c1` [indole], the kcat amounted to 5.8 s⁻¹ in assay [1] (75° C.) and 0.51 s⁻¹ in assay [2] (60° C.). In addition, the “increase in kcat more than TmTrpA binding” value in assay [1] (relative to TmTrpA binding (TmTrpS)) is listed as 3 fold. The increase in kcat was determined as 4 fold in assay [1] (with respect to wild type) and 7 fold in assay [2] (compared to wild type).
